According to US9328386B2, “Markers for susceptibility to an inhibitor of an Src-family kinase” (Evotec (München) GmbH, priority 2011, dated 2016):
Like-named read-outs stand apart in the source and are kept apart here. One block for each molecule: values may come before it.

How the values were obtained:
Experiment in all cases: Cellular growth inhibition (CellTiter Glo viability assay)
Type in all cases: cell-based
H2009 NSCLC cell line = details: Homo sapiens
H520 NSCLC cell line = details: Homo sapiens
HCC366 NSCLC cell line = details: Homo sapiens
H157 NSCLC cell line = details: Homo sapiens
H2077 NSCLC cell line = details: Homo sapiens
H1648 NSCLC cell line = details: Homo sapiens
H460 NSCLC cell line = details: Homo sapiens
Calu6 NSCLC cell line = details: Homo sapiens
LouNH91 NSCLC cell line = details: Homo sapiens
PC9 NSCLC cell line = details: Homo sapiens
HCC78 NSCLC cell line = details: Homo sapiens
HCC4006 NSCLC cell line = details: Homo sapiens
H322M NSCLC cell line = details: Homo sapiens, NCI-H322M
H2172 NSCLC cell line = details: Homo sapiens
H2030 NSCLC cell line = details: Homo sapiens
H1395 NSCLC cell line = details: Homo sapiens
H1666 NSCLC cell line = details: Homo sapiens
HCC2279 NSCLC cell line = details: Homo sapiens
[1] = NCI-H2009, H2009, 96 hours of treatment, read-out: GI50
[2] = NCI-H520, H520, 96 hours of treatment, read-out: GI50
[3] = HCC366, 96 hours of treatment, read-out: GI50
[4] = NCI-H157, H157, 96 hours of treatment, read-out: GI50
[5] = 96 h, read-out: GI50 this paper
[6] = H2077, 96 hours of treatment, read-out: GI50
[7] = NCI-H1648, H1648, 96 hours of treatment, read-out: GI50
[8] = NCI-H460, H460, 96 hours of treatment, read-out: GI50
[9] = Calu-6, 96 hours of treatment, read-out: GI50
[10] = LOU-NH91, LouNH91, 96 hours of treatment, read-out: GI50
[11] = PC9, 96 hours of treatment, read-out: GI50
[12] = HCC78, 96 hours of treatment, read-out: GI50
[13] = HCC4006, 96 hours of treatment, read-out: GI50
[14] = H322M, 96 hours of treatment, read-out: GI50
[15] = NCI-H2172, H2172, 96 hours of treatment, read-out: GI50
[16] = NCI-H2030, H2030, 96 hours of treatment, read-out: GI50
[17] = NCI-H1395, H1395, 96 hours of treatment, read-out: GI50
[18] = NCI-H1666, H1666, 96 hours of treatment, read-out: GI50
[19] = HCC2279, 96 hours of treatment, read-out: GI50

SMILES: Cc1nc(Nc2ncc(C(=O)Nc3c(C)cccc3Cl)s2)cc(N2CCN(CCO)CC2)n1 [dasatinib, N-(2-chloro-6-methylphenyl)-2-[[6-[4-(2-hydroxyethyl)piperazin-1-yl]-2-methylpyrimidin-4-yl]amino]-1,3-thiazole-5-carboxamide]
GI50 (H2009 NSCLC cell line; NCI-H2009, 96 h, read-out: GI50 this paper): 85 nM
IC50 (H2009 NSCLC cell line; NCI-H2009, read-out: Sensitivity Dasatinib): < 1000 nM
GI50 (H2009 NSCLC cell line; [1]): 85 nM
GI50 (H520 NSCLC cell line; NCI-H520, 96 h, read-out: GI50 this paper): 1430 nM
IC50 (H520 NSCLC cell line; NCI-H520, read-out: Sensitivity Dasatinib): > 1000 nM
GI50 (H520 NSCLC cell line; [2]): 1430 nM
GI50 (HCC366 NSCLC cell line; HCC366, 96 h, read-out: GI50 this paper): 17 nM
IC50 (HCC366 NSCLC cell line; HCC366, read-out: Sensitivity Dasatinib): < 1000 nM
GI50 (HCC366 NSCLC cell line; [3]): 17 nM
GI50 (H157 NSCLC cell line; NCI-H157, 96 h, read-out: GI50 this paper): 2630 nM
IC50 (H157 NSCLC cell line; NCI-H157, read-out: Sensitivity Dasatinib): > 1000 nM
GI50 (H157 NSCLC cell line; [4]): 2630 nM
GI50 (H2077 NSCLC cell line; [5]): 4.75 µM
IC50 (H2077 NSCLC cell line; read-out: Sensitivity Dasatinib, H2077): > 1000 nM
GI50 (H2077 NSCLC cell line; [6]): 4.75 µM
GI50 (H1648 NSCLC cell line; NCI-H1648, 96 h, read-out: GI50 this paper): 79 nM
IC50 (H1648 NSCLC cell line; NCI-H1648, read-out: Sensitivity Dasatinib): < 1000 nM
GI50 (H1648 NSCLC cell line; [7]): 79 nM
GI50 (H460 NSCLC cell line; NCI-H460, 96 h, read-out: GI50 this paper): 3.9 µM
IC50 (H460 NSCLC cell line; NCI-H460, read-out: Sensitivity Dasatinib): > 1000 nM
GI50 (H460 NSCLC cell line; [8]): 3.9 µM
GI50 (Calu6 NSCLC cell line; Calu-6, 96 h, read-out: GI50 this paper): 2800 nM
IC50 (Calu6 NSCLC cell line; Calu-6, read-out: Sensitivity Dasatinib): > 1000 nM
GI50 (Calu6 NSCLC cell line; [9]): 2800 nM
GI50 (LouNH91 NSCLC cell line; LOU-NH91, 96 h, read-out: GI50 this paper): 68 nM
IC50 (LouNH91 NSCLC cell line; LOU-NH91, read-out: Sensitivity Dasatinib, LouNH91): < 1000 nM
GI50 (LouNH91 NSCLC cell line; [10]): 68 nM
GI50 (PC9 NSCLC cell line; [5]): 20 nM
IC50 (PC9 NSCLC cell line; PC-9, read-out: Sensitivity Dasatinib, PC9): < 1000 nM
GI50 (PC9 NSCLC cell line; [11]): 20 nM
GI50 (HCC78 NSCLC cell line; HCC78, 96 h, read-out: GI50 this paper): 17.1 µM
IC50 (HCC78 NSCLC cell line; HCC78, read-out: Sensitivity Dasatinib): > 1000 nM
GI50 (HCC78 NSCLC cell line; [12]): 17.1 µM
GI50 (HCC4006 NSCLC cell line; HCC4006, 96 h, read-out: GI50 this paper): 950 nM
IC50 (HCC4006 NSCLC cell line; HCC4006, read-out: Sensitivity Dasatinib): < 1000 nM
GI50 (HCC4006 NSCLC cell line; [13]): 950 nM
GI50 (H322M NSCLC cell line; [5]): 311 nM
IC50 (H322M NSCLC cell line; read-out: Sensitivity Dasatinib): < 1000 nM
GI50 (H322M NSCLC cell line; [14]): 311 nM
GI50 (H2172 NSCLC cell line; NCI-H2172, 96 h, read-out: GI50 this paper): 5.85 µM
IC50 (H2172 NSCLC cell line; NCI-H2172, read-out: Sensitivity Dasatinib): > 1000 nM
GI50 (H2172 NSCLC cell line; [15]): 5.85 µM
GI50 (H2030 NSCLC cell line; NCI-H2030, 96 h, read-out: GI50 this paper): 22 nM
IC50 (H2030 NSCLC cell line; NCI-H2030, read-out: Sensitivity Dasatinib): < 1000 nM
GI50 (H2030 NSCLC cell line; [16]): 22 nM
GI50 (H1395 NSCLC cell line; NCI-H1395, 96 h, read-out: GI50 this paper): 4.7 µM
IC50 (H1395 NSCLC cell line; NCI-H1395, read-out: Sensitivity Dasatinib): > 1000 nM
GI50 (H1395 NSCLC cell line; [17]): 4.7 µM
GI50 (H1666 NSCLC cell line; NCI-H1666, 96 h, read-out: GI50 this paper): 76 nM
IC50 (H1666 NSCLC cell line; NCI-H1666, read-out: Sensitivity Dasatinib): < 1000 nM
GI50 (H1666 NSCLC cell line; [18]): 76 nM
GI50 (HCC2279 NSCLC cell line; [5]): 45 nM
IC50 (HCC2279 NSCLC cell line; read-out: Sensitivity Dasatinib, HCC2279): < 1000 nM
GI50 (HCC2279 NSCLC cell line; [19]): 45 nM

IC50 (H2009 NSCLC cell line; NCI-H2009, read-out: Sensitivity Saracatinib): > 3500 nM
GI50 (H2009 NSCLC cell line; [1]): 4310 nM
IC50 (H520 NSCLC cell line; NCI-H520, read-out: Sensitivity Saracatinib): > 3500 nM
GI50 (H520 NSCLC cell line; [2]): 4560 nM
IC50 (HCC366 NSCLC cell line; HCC366, read-out: Sensitivity Saracatinib): < 3500 nM
GI50 (HCC366 NSCLC cell line; [3]): 1240 nM
IC50 (H157 NSCLC cell line; NCI-H157, read-out: Sensitivity Saracatinib): > 3500 nM
GI50 (H157 NSCLC cell line; [4]): 13900 nM
IC50 (H2077 NSCLC cell line; read-out: Sensitivity Saracatinib, H2077): > 3500 nM
GI50 (H2077 NSCLC cell line; [6]): 14.8 µM
IC50 (H1648 NSCLC cell line; NCI-H1648, read-out: Sensitivity Saracatinib): < 3500 nM
GI50 (H1648 NSCLC cell line; [7]): 1510 nM
IC50 (H460 NSCLC cell line; NCI-H460, read-out: Sensitivity Saracatinib): > 3500 nM
GI50 (H460 NSCLC cell line; [8]): 12.1 µM
IC50 (Calu6 NSCLC cell line; Calu-6, read-out: Sensitivity Saracatinib): > 3500 nM
GI50 (Calu6 NSCLC cell line; [9]): 30000 nM
IC50 (PC9 NSCLC cell line; PC-9, read-out: Sensitivity Saracatinib, PC9): < 3500 nM
GI50 (PC9 NSCLC cell line; [11]): 147 nM
IC50 (HCC78 NSCLC cell line; HCC78, read-out: Sensitivity Saracatinib): < 3500 nM
GI50 (HCC78 NSCLC cell line; [12]): 0.267 µM
IC50 (HCC4006 NSCLC cell line; HCC4006, read-out: Sensitivity Saracatinib): < 3500 nM
GI50 (HCC4006 NSCLC cell line; [13]): 132 nM
IC50 (H322M NSCLC cell line; read-out: Sensitivity Saracatinib): < 3500 nM
GI50 (H322M NSCLC cell line; [14]): 876 nM
IC50 (H2172 NSCLC cell line; NCI-H2172, read-out: Sensitivity Saracatinib): > 3500 nM
GI50 (H2172 NSCLC cell line; [15]): 28.5 µM
IC50 (H2030 NSCLC cell line; NCI-H2030, read-out: Sensitivity Saracatinib): < 3500 nM
GI50 (H2030 NSCLC cell line; [16]): 443 nM
IC50 (H1395 NSCLC cell line; NCI-H1395, read-out: Sensitivity Saracatinib): > 3500 nM
GI50 (H1395 NSCLC cell line; [17]): 31.7 µM
IC50 (H1666 NSCLC cell line; NCI-H1666, read-out: Sensitivity Saracatinib): < 3500 nM
GI50 (H1666 NSCLC cell line; [18]): 2200 nM
IC50 (HCC2279 NSCLC cell line; read-out: Sensitivity Saracatinib, HCC2279): < 3500 nM
GI50 (HCC2279 NSCLC cell line; [19]): 660 nM
SMILES: CN1CCN(CCOc2cc(OC3CCOCC3)c3c(Nc4c(Cl)ccc5c4OCO5)ncnc3c2)CC1 [saracatinib, N-(5-Chloro-1,3-benzodioxol-4-yl)-7-[2-(4-methyl-1-piperazinyl)ethoxy]-5-[(tetrahydro-2H-pyran-4-yl)oxy]-4-quinazolinamine]
IC50 (LouNH91 NSCLC cell line; LOU-NH91, read-out: Sensitivity Saracatinib, LouNH91): < 3500 nM
GI50 (LouNH91 NSCLC cell line; [10]): 1180 nM
